US20260116910A1, “POLYCYCLIC COMPOUNDS AND METHODS THEREOF” (HEPAITECH (BEIJING) BIOPHARMA TECHNOLOGY CO., LTD., priority 2021, published 2026)
Where two headings read alike, the source gives them in different places.

Columns and labels:
human FXR (NR1H4) = molecular target: T1, human FXR (NR1H4) (Homo sapiens, UniProt Q96RI1); assay: Human FXR (NR1H4) agonist assessment, FXRE-NanoLuc reporter in HEK293T cells; type: cell-based
T1 sequence (Q96RI1 1-476 isoform Q96RI1-1): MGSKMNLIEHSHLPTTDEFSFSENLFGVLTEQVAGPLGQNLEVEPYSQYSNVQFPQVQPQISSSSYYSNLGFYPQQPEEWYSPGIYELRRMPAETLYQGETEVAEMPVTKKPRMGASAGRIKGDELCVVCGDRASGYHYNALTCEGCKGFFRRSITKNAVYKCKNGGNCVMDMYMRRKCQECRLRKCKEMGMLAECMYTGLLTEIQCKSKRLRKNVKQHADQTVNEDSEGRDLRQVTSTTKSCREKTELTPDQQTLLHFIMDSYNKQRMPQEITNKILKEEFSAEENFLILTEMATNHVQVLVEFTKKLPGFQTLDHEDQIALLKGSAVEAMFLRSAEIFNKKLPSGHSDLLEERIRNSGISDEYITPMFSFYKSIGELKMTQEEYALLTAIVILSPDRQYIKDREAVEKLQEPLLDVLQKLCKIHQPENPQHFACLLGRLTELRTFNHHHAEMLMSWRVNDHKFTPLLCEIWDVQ
Procedure, shortened: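 Read-out was NanoLuc luminescence in culture medium, measured 5 min after adding coelenterazine. Cells were HEK293T stably carrying human FXR and an FXRE reporter, exposed to compound for 24 hr at 37 °C. Vehicle was 0.01% DMSO. EC50 was obtained from sigmoid fits of gradient dilutions.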

MRGPRX4 = MRGPRX4 (Homo sapiens, UniProt Q96LA9); assay: MRGPRX4 activation, Fluo-8 Ca2+ FLIPR assay in HEK293T cells stably expressing MRGPRX4; type: cell-based; set-up: key to MRGPRX4 activation, Average / MRGPRX4 activation, Ave.: fluorescence change dF/F0
Sequence of MRGPRX4 (Q96LA9 whole entry): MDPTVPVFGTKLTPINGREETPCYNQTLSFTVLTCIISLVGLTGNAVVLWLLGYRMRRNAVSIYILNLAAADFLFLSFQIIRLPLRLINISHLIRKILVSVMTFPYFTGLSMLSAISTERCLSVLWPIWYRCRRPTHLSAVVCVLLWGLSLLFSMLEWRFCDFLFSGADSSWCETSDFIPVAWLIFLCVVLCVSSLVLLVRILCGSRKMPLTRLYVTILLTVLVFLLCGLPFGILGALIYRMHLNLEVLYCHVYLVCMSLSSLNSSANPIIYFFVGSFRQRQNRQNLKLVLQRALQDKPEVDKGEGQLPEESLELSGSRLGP
Procedure, shortened: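 Response measured as dF/F0: 30 s baseline, then 150 s after compound addition on FLIPR Tetra, in HHBS after 40-60 min room-temperature loading with 2 μM Fluo-8 AM.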

[1] = FXR activation, HEK293T FXRE-NanoLuc reporter, 24 hr
[2] = FXR activation, HEK293T FXRE-NanoLuc reporter, 24 hr, read-out: EC50
[3] = MRGPRX4 activation, Ca2+ fluorescence, no activation in tested range reported as III, read-out: Activity (EC50 μM)

Row | SMILES | Efficacy (maximum measured induction of NanoLuc, normalized to CDCA set as 100%) (human FXR (NR1H4); [1]) | EC50 (human FXR (NR1H4); [2]) | MRGPRX4 activation, Average (MRGPRX4; E3-9, Conc. (Log[M]) −4.0) | MRGPRX4 activation, Average (MRGPRX4; E3-9, Conc. (Log[M]) −4.5) | MRGPRX4 activation, Average (MRGPRX4; E3-9, Conc. (Log[M]) −5.0) | MRGPRX4 activation, Average (MRGPRX4; E3-9, Conc. (Log[M]) −5.4) | MRGPRX4 activation, Average (MRGPRX4; E3-9, Conc. (Log[M]) −5.9) | MRGPRX4 activation, Average (MRGPRX4; E3-9, Conc. (Log[M]) −6.4) | MRGPRX4 activation, Average (MRGPRX4; E3-9, Conc. (Log[M]) −6.9) | MRGPRX4 activation, Average (MRGPRX4; E3-9, Conc. (Log[M]) −7.3) | MRGPRX4 activation, Average (MRGPRX4; E3-9, Conc. (Log[M]) −7.8) | MRGPRX4 activation, Average (MRGPRX4; E3-9, Conc. (Log[M]) −8.3) | EC50 (MRGPRX4; [3]) | Efficacy (maximum measured induction of NanoLuc, normalized to CDCA set as 100%) (human FXR (NR1H4)) | other results
1 | CC[C@H]1[C@@H](O)[C@@H]2[C@H](CC[C@]3(C)[C@@H]([C@H](C)CCNC(=O)NS(=O)(=O)c4cccs4)CC[C@@H]23)[C@@]2(C)CCC(F)(F)C[C@@H]12 [10-4] | C (100%<efficacy <=300%) | < 1 µM | −0.004 | 0.001 | 0.008 | 0.022 | 0.013 | 0.015 | 0.013 | 0.010 | 0.010 | 0.020 | > 100 µM |  | 
2 | CC[C@H]1[C@@H](O)[C@@H]2[C@H](CC[C@]3(C)[C@@H]([C@H](C)CCN=C=S)CC[C@@H]23)[C@@]2(C)CCC(F)(F)C[C@@H]12 [11-2] | D (efficacy <=100%) |  | 0.030 | 0.020 | 0.010 | 0.020 | 0.020 | 0.013 | 0.013 | 0.013 | 0.013 | 0.025 |  |  | EC50 (human FXR (NR1H4)): > 10 µM; EC50 (MRGPRX4): > 100 µM
3 | CC[C@H]1[C@@H](O)[C@@H]2[C@H](CC[C@]3(C)[C@@H]([C@H](C)CCNC(=S)NS(=O)(=O)c4cccs4)CC[C@@H]23)[C@@]2(C)CCC(F)(F)C[C@@H]12 [11-3] |  | < 1 µM | 0.003 | 0.010 | 0.015 | 0.015 | 0.015 | 0.008 | 0.010 | 0.015 | 0.018 | 0.051 | > 100 µM | C (key: A: efficacy >400%; B: 300%<efficacy <=400%; C: 100%<efficacy <=300%; D: efficacy <=100%) | 
4 | CC[C@H]1[C@@H](O)[C@@H]2[C@H](CC[C@]3(C)[C@@H]([C@H](C)CCNC(=S)NS(=O)(=O)c4ccc(C(C)(C)CF)cc4)CC[C@@H]23)[C@@]2(C)CCC(F)(F)C[C@@H]12 [11-4] |  | < 1 µM | 0.013 | 0.013 | 0.020 | 0.015 | 0.015 | 0.013 | 0.010 | 0.015 | 0.015 | 0.022 | > 100 µM | B (key: A: efficacy >400%; B: 300%<efficacy <=400%; C: 100%<efficacy <=300%; D: efficacy <=100%) | 
5 | [2H]C1([2H])CC[C@@]2(C)[C@@H](C1)[C@@H](CC)[C@@H](O)[C@@H]1[C@@H]2CC[C@]2(C)[C@@H]([C@H](C)CCNC(=O)NS(=O)(=O)c3ccc(C(C)(C)CF)cc3)CC[C@@H]12 [12-2] | A (efficacy >400%) | < 1 µM |  |  |  |  |  |  |  |  |  |  | > 100 µM |  | MRGPRX4 activation, Ave. (MRGPRX4; E3-7, Conc. (Log[M]) −4): 0.000; MRGPRX4 activation, Ave. (MRGPRX4; E3-7, Conc. (Log[M]) −4.5): −0.041; MRGPRX4 activation, Ave. (MRGPRX4; E3-7, Conc. (Log[M]) −5): −0.041; MRGPRX4 activation, Ave. (MRGPRX4; E3-7, Conc. (Log[M]) −5.5): −0.054; MRGPRX4 activation, Ave. (MRGPRX4; E3-7, Conc. (Log[M]) −6): −0.041; MRGPRX4 activation, Ave. (MRGPRX4; E3-7, Conc. (Log[M]) −7): −0.027
6 | [2H]C1CC[C@@]2(C)[C@@H](C1)[C@@H](CC)[C@@H](O)[C@@H]1[C@@H]2CC[C@]2(C)[C@@H]([C@H](C)CCC(=O)O)CC[C@@H]12 (stereo partly drawn) [13-1] | C (100%<efficacy <=300%) | < 1 µM | 0.104 | −0.009 | 0.013 | 0.013 | 0.018 | 0.015 | 0.018 | 0.013 | 0.010 | 0.013 | > 100 µM |  | 
7 | [2H]C1CC[C@@]2(C)[C@@H](C1)[C@@H](CC)[C@@H](O)[C@@H]1[C@@H]2CC[C@]2(C)[C@@H]([C@H](C)CCNC(=O)NS(=O)(=O)c3ccc(C(C)(C)CF)cc3)CC[C@@H]12 (stereo partly drawn) [13-2] | A (efficacy >400%) | < 1 µM |  |  |  |  |  |  |  |  |  |  | > 100 µM |  | MRGPRX4 activation, Ave. (MRGPRX4; E3-7, Conc. (Log[M]) −4): −0.054; MRGPRX4 activation, Ave. (MRGPRX4; E3-7, Conc. (Log[M]) −4.5): −0.054; MRGPRX4 activation, Ave. (MRGPRX4; E3-7, Conc. (Log[M]) −5): −0.027; MRGPRX4 activation, Ave. (MRGPRX4; E3-7, Conc. (Log[M]) −5.5): −0.027; MRGPRX4 activation, Ave. (MRGPRX4; E3-7, Conc. (Log[M]) −6): −0.027; MRGPRX4 activation, Ave. (MRGPRX4; E3-7, Conc. (Log[M]) −7): 0.000
8 | [2H]C1([2H])CC[C@@]2(C)[C@@H](C1)[C@@H](CC)[C@@H](O)[C@@H]1[C@@H]2CC[C@]2(C)[C@@H]([C@H](C)CCN=C=S)CC[C@@H]12 [14-2] | C (100%<efficacy <=300%) |  | 0.090 | 0.027 | 0.027 | 0.030 | 0.020 | 0.013 | 0.013 | 0.013 | 0.010 | 0.010 |  |  | EC50 (human FXR (NR1H4)): > 10 µM; EC50 (MRGPRX4): > 100 µM
9 | [2H]C1([2H])CC[C@@]2(C)[C@@H](C1)[C@@H](CC)[C@@H](O)[C@@H]1[C@@H]2CC[C@]2(C)[C@@H]([C@H](C)CCNC(=S)NS(=O)(=O)c3cccs3)CC[C@@H]12 [14-4] |  | < 1 µM | 0.061 | 0.020 | 0.013 | 0.018 | 0.013 | 0.020 | 0.015 | 0.015 | 0.008 | 0.015 | > 100 µM | C (key: A: efficacy >400%; B: 300%<efficacy <=400%; C: 100%<efficacy <=300%; D: efficacy <=100%) | 
10 | CC[C@H]1[C@@H](O)[C@@H]2[C@H](CC[C@]3(C)[C@@H]([C@H](C)COC(=O)NS(=O)(=O)c4ccc(C(C)(C)CF)cc4)CC[C@@H]23)[C@@]2(C)CCCC[C@@H]12 [18-1] | A (efficacy >400%) | < 1 µM | 0.168 | 0.003 | 0.008 | 0.019 | 0.018 |  |  |  |  |  | > 100 µM |  | Activation (%) (MRGPRX4; second E3-8-1, 4.6 nM, n = 1): 3.17%; Activation (%) (MRGPRX4; second E3-8-1, 4.6 nM, n = 2): 2.86%; Activation (%) (MRGPRX4; second E3-8-1, 14 nM, n = 1): 2.86%; Activation (%) (MRGPRX4; second E3-8-1, 14 nM, n = 2): 3.17%; Activation (%) (MRGPRX4; second E3-8-1, 41 nM, n = 1): 2.55%; Activation (%) (MRGPRX4; second E3-8-1, 41 nM, n = 2): 3.48%; Activation (%) (MRGPRX4; second E3-8-1, 123 nM, n = 1): 2.55%; Activation (%) (MRGPRX4; second E3-8-1, 123 nM, n = 2): 3.17%; Activation (%) (MRGPRX4; second E3-8-1, 370 nM, n = 1): 3.17%; Activation (%) (MRGPRX4; second E3-8-1, 370 nM, n = 2): 3.48%; Activation (%) (MRGPRX4; second E3-8-1, 1111 nM, n = 1): 2.86%; Activation (%) (MRGPRX4; second E3-8-1, 1111 nM, n = 2): 2.86%; Activation (%) (MRGPRX4; second E3-8-1, 3333 nM, n = 1): 1.93%; Activation (%) (MRGPRX4; second E3-8-1, 3333 nM, n = 2): 2.55%; Activation (%) (MRGPRX4; second E3-8-1, 10000 nM, n = 1): 2.86%; Activation (%) (MRGPRX4; second E3-8-1, 10000 nM, n = 2): 3.79%; Activation (%) (MRGPRX4; second E3-8-1, 30000 nM, n = 1): 2.24%; Activation (%) (MRGPRX4; second E3-8-1, 30000 nM, n = 2): 2.24%
